Reference: patent US10406120B2, “Methods and compositions for treating kidney disorders” (Golden Biotechnology Corporation, priority 2013, dated 2019)

Assays:
NO = assay: FSGS model: NO determination; assay type: in vivo, BALB/c mice; details: FSGS mice
Description: (§1) Experiments described herein were performed on 8-week-old female BALB/c mice. The FSGS mice were injected intravenously with a single dose of adriamycin (0.1 mg/10 g body weight). The mice were given Compound 1 six hours before adriamycin injection by gavage daily till sacrifice. BALB/c mice intraperitoneal injected with normal saline were used as normal controls, while ASLN mice given vehicle (corn oil) by gavage were used as disease controls. Mice were killed at day 7, 14, or 21 after disease induction, and spleen, renal cortical tissue, and blood samples collected and stored appropriately until analysis. All animal experiments were performed with the ethical approval of the Institutional Animal Care and Use Committee of The National Defense Medical Center, Taiwan and performed according to the ethical rules in the NIH Guide for the Care and Use of Laboratory Animals.
(§2) NO levels in serum were detected with NO Detection kit (iNtRON Biotechnology, Seongnam, Korea), based on diazotization (Griess method), according to the manufacturer's instructions.

Nrf2 [1] = assay: FSGS model: Western blot of nuclear Nrf2 in kidney; assay type: in vivo, BALB/c mice; details: FSGS mice, day 14 to day 21, vs control FSGS mice or normal controls
Description: as §1
The preparation of cytoplasmic and nuclear proteins of renal tissues was extracted using the Nuclear Extract Kit (Active Motif, Tokyo, Japan) according to the manufacturer's instructions. Target proteins in the cytoplasmic and/or nuclear fractions of kidney tissue were measured by Western blot analysis using rabbit antibodies against mouse Nrf2, or p47^phox (Santa Cruz). […]

[2] = AcP-IgAN model: renal histopathology; assay type: in vivo, B cell-deficient mice; details: AcP-IgAN mice
Description: (§3) B cell-deficient mice (B6.129S2-Igh-6tm1Cgn/J) were obtained from the Academia Sinica (Professor John T. Kung, Institute of Molecular Biology), and maintained at the animal center of the National Defense Medical Center, Taipei, Taiwan. AcP-IgAN was induced in the mice by daily injection of purified IgA anti-phosphorylcholine antibodies and pneumococcal C-polysaccharide (PnC) as described previously (Chao, et al., Kidney Int. 70:283-297; 2006). All animal experiments were performed with the approval of the Institutional Animal Care and Use Committee of The National Defense Medical Center, Taiwan, and were consistent with the NIH Guide for the Care and Use of Laboratory Animals.
For renal histopathology, the tissues were fixed in 10% buffered formalin and embedded in paraffin, and then sections (4 μm) were prepared and stained with hematoxylin and eosin (H&E). The proportion of glomeruli showing proliferation, crescent formation, sclerosis, or peri-glomerular inflammation was counted in 50 randomly sampled glomeruli by light microscopy at the magnification of 400×.

Col-IV = assay: AcP-IgAN model: renal Col-IV mRNA and protein; assay type: in vivo, B cell-deficient mice; details: AcP-IgAN mice
Description: as §3
For IHC, formalin fixed and paraffin embedded tissue sections or frozen sections were incubated with against IL-6 (R&D Systems, MN), MCP-1 (Santa Cruz, Calif.), F4/80 (monocytes/macrophages; Serotec, N.C.), collagen IV (Southern Biotech, AL), TGF-β1 (Santa Cruz), phopsho-NFκB p65 (Cell Signaling, MA), CD3 (pan-T cell; Serotec), CD4 (T helper cell; BioLegend, CA), CD8 (cytotoxic T cell), CD11b (macrophages/neutrophils), or CD11c (dendritic cells) (BD Biosciences, CA) antibodies. The FITC-conjugated, Alexa Fluor 488-conjugated (Invitrogen, CA) or horseradish peroxidase (HRP) conjugated secondary antibodies (DAKO, Denmark) were then applied to the sections. Hematoxylin or 4′,6-diamidino-2-phenylindole (DAKO) was used in the counter staining for nuclei.
Total cortical kidney RNA was extracted with TriZOL reagents (Invitrogen) from cortical tissue of the kidney. For first-strand cDNA synthesis, 1.5 μg of total RNA was used in a single-round reverse transcriptase reaction. The reaction mixture consisted of 0.9 μl of Oligo (dT) 12 to 18 primer, 1.0 mM deoxyribonucleotide triphosphate (dNTP), 1 μl first strand buffer, 0.4 mM dithiothreitol, 80 U of RNaseout recombinant ribonuclease inhibitor, and 300 U of superscript II RNase H (Invitrogen). Real-time PCR was performed on an ABI Prism 7700 Sequence Detection System (Applied Biosystems, CA). […]

splenocytes = assay: AcP-IgAN model: flow cytometry of T cell activation in splenocytes; assay type: in vivo, B cell-deficient mice; details: AcP-IgAN mice
Description: as §3
Splenocytes from the mice were treated with Tris-buffered ammonium chloride to eliminate erythrocytes, washed, resuspended in RPMI 1640 supplemented with 10% fetal calf serum, HEPES buffer, L-glutamine, and penicillin/streptomycin (all from Invitrogen). The cells were stained with either surface marker for T or B cell activation. FITC-conjugated anti-mouse CD3, CD4, CD8, or CD19 (B cell) antibodies and phycoerythrin (PE)-conjugated anti-mouse CD69 antibodies (all from BD Biosciences) were analyzed with FACSCalibur (BD Biosciences).

nitric oxide (NO) = assay: AcP-IgAN model: NO levels; assay type: in vivo, B cell-deficient mice; details: AcP-IgAN mice
Text: as §2, §3

Nrf2 [3] = assay: AcP-IgAN model: renal Nrf2 mRNA and protein; assay type: in vivo, B cell-deficient mice; details: AcP-IgAN mice, day 3 until day 28, vs control AcP-IgAN mice
Description: as §3
Nuclear proteins were extracted using a nuclear extract kit (Active Motif, Japan). Phospho-NF-κB p65 and nuclear factor-erythroid-2-related factor 2 (NrF2) were measured in renal tissue nuclear protein extracts using Trans-AM ELISA assay kits (Active Motif), according to the manufacturer's instructions. Renal cytosolic protein extracts using RIPA buffer (Cell signaling). Cytosolic glutathione peroxidase (GPx) (Cayman, Mich.) and cytosolic heme oxygenase-1 (HO-1) (Enzo Life Sciences, NY) were measured using commercial ELISA kits according to the manufacturer's instructions. Both were expressed relative to the protein concentration in the lysate. […]

[4] = day 3, vs control AcP-IgAN mice
[5] = day 28, vs control AcP-IgAN mice

For `COC1=C(OC)[C@H](O)[C@H](C/C=C(\C)CC/C=C(\C)CCC=C(C)C)[C@@H](C)C1=O` [Compound 1, Antroquinonol], the “urine levels of NO” value (NO; day 7, among normal control, FSGS+vehicle and FSGS+antroq mice) was “no detectable difference”, the “serum NO levels” value (NO; day 7 to day 21, vs control FSGS mice) was “significantly suppressed” and the “urine NO levels” value (NO; day 14 to day 21, vs control FSGS mice) was “effectively blunted”. For the same molecule, the “Nrf2 translocation into nuclei” value (Nrf2 [1]) was “strongly augmented”, the renal histopathology [2, 4] was “significantly inhibited” and the “renal lesions (proliferation, crescents, sclerosis, peri-glomerular leukocyte infiltration, tubular atrophy; except glomerular immune deposits)” value [2, 5] was “substantially inhibited”. The “renal mRNA levels of Col-IV” value (Col-IV; day 3) was “basal mRNA levels”, the “Col-IV protein levels in kidney (IHC)” value (Col-IV; [5]) was “substantially inhibited” and the “renal mRNA expression of Col-IV” value (Col-IV; [5]) was “greatly inhibited”. The “percentage of CD3^+/CD69^+ T cells in splenocytes” value (splenocytes; [4]) was “significant reduction”, the “percentage of CD4^+/CD69^+ T cells in splenocytes” value (splenocytes; [4]) was “no significant difference” and the “percentage of CD8^+/CD69^+ T cells in splenocytes” value (splenocytes; [4]) was “no significant difference”. For the same molecule, the “percentage of each of the three subtypes of T cells (CD3^+/CD69^+, CD4^+/CD69^+, CD8^+/CD69^+)” value (splenocytes; day 28) was “no different from that of normal controls”, the “urine NO levels” value (nitric oxide (NO); both day 3 and day 28, vs control AcP-IgAN mice) was “significantly decreased” and the “serum levels of NO” value (nitric oxide (NO); [4]) was “no significant difference”. The “serum levels of NO” value (nitric oxide (NO); [5]) was “substantially reduced”, the “renal expression levels of mRNA of Nrf2” value (Nrf2 [3]) was “greatly increased” and the “renal expression levels of protein of Nrf2” value (Nrf2 [3]) was “greatly increased”.
